This is an account of results in paper PMC8569227 (Frontiers in Plant Science, 2021).

Broadly, the IC50 is the point on the concentration scale where inhibition reaches its midpoint. For orientation: Km means the concentration of substrate that gives half-maximal velocity.

For experiment [1], the target named is T1, recombinant Trypanosoma brucei AOX (rTAO) (Trypanosoma brucei brucei, UniProt Q26710). It is filed as biochemical.
Experiment [2] deals with T2, Arabidopsis thaliana AOX1A (rAtAOX1A) (Arabidopsis thaliana, UniProt Q39219). Format: biochemical. Conditions: for Fold change of oxygen consumption rate of rAtAOX1A vs control / Effect on oxygen consumption rate of rAtAOX1A (in words): 10 mM effector, membrane-bound protein, 1 mM NADH; for Fold change of oxygen consumption rate of rAtAOX1A vs control: 1 mM KCN (Figure 5C); for Effect on oxygen consumption rate of rAtAOX1A (in words): 1 mM KCN (Figure 5).

Experiment [3] has as its target T2, Arabidopsis thaliana AOX1A (rAtAOX1A). It is filed as biochemical. The method, then: (§1) Kinetic analysis of the purified rTAO and rAtAOX1A was performed spectrophotometrically using a Cary 4000 UV spectrophotometer (Varian, UK Ltd, Surrey UK) with the packaged software. All assays were performed in 65 mM MOPS buffer pH 7.5 with different concentrations of quinol-1 as the substrate, measuring the conversion of Q1H2 (ubiquinol-1) to Q1 (ubiquinone-1) at 278 nm (ε = 15,000 M^−1 cm^−1). Q1 was reduced to Q1H2 prior to experimentation via sonication with zinc powder under an inert atmosphere for ~10 min, with the resultant zinc then being removed via centrifugation at 2,000 g.

Experiment [4] shares this target. Nature of the experiment: biochemical. Conditions: rAtAOX1A IC50, membrane-bound protein, 300 μM NADH, MOPS buffer pH 7.5.
Experiment [5] addresses T1, recombinant Trypanosoma brucei AOX (rTAO). Nature of the experiment: biochemical. Conditions: rTAO IC50, membrane-bound protein, 300 μM NADH, MOPS buffer pH 7.5.
The target is the same in experiment [6]. Nature of the experiment: Quinol kinetics of purified rTAO, Q1H2 oxidation at 278 nm. Format: biochemical. The settings on record: MOPS pH 7.5. The method, then: as §1

Each structure is given as a SMILES string. Values joined by “and” are separate entries in the source; they are usually repeats but may differ in a detail not shown here. Equal values may be shown once. Read-outs that look alike come from different tables or passages of the source.

T1 sequence (Q26710 25-329): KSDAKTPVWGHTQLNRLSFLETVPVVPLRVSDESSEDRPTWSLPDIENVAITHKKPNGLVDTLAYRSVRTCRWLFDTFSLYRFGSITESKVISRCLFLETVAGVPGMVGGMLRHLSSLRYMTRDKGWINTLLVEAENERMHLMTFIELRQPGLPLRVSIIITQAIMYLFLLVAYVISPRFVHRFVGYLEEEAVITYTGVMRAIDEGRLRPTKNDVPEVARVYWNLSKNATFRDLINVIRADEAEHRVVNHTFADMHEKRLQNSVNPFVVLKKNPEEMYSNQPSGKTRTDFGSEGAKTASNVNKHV
T2 sequence (Q39219 63-354): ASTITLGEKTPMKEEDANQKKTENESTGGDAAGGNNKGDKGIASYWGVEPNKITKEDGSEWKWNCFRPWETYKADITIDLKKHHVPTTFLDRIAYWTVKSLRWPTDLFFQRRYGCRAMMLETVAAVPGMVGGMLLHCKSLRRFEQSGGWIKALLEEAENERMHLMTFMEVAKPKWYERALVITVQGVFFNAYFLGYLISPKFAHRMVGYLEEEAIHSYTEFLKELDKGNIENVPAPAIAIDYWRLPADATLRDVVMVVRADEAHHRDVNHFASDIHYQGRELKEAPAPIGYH

As to `CC(=O)C(=O)O` [pyruvate], in experiment [1] (10 mM effector, membrane-bound protein), the “Activation of oxygen consumption rate of rTAO (in words)” value is recorded as “but not that of rTAO”. In experiment [2], the “Fold change of oxygen consumption rate of rAtAOX1A vs control” value (from here on “Fold change”) is on record as “more than 7 fold”. For the same compound, in experiment [2] (10 mM pyruvate, membrane samples, 1.25 mM NADH (Figure 4)), the “Respiratory rate of rAtAOX1A with vs without pyruvate” value is ~ 6 fold. Moreover, the “Change of Km for O2 of rAtAOX1A” value in experiment [2] (10 mM pyruvate, membrane-bound protein (Figure 4)) is given as “increased Km value for O2”. For the same compound, the “Change of Km for Q1H2 of rAtAOX1A” value in experiment [3] (10 mM pyruvate during purification and in the assay, purified protein) is “remained unchanged”. For the same compound, in experiment [3] (10 mM pyruvate during purification and in the assay, purified protein, Q1H2 substrate), the “Change of Vmax of rAtAOX1A” value is “increased approximately five times”. On to `O=C(NO)c1ccccc1O` [SHAM, salicylic hydroxamic acid], for which the IC50 in experiment [4] was found to be 33000 nM. In experiment [4], `C/C(=C\Cc1c(O)c(Cl)c(C)c(C=O)c1O)CC/C=C(\C)[C@@H]1CC(=O)C(C)(C)O1` [AF, ascofuranone] showed an IC50 of 6.21 nM.

Consider `O=C(O)CCC(=O)O` [succinate], for which the “Effect on oxygen consumption rate of rAtAOX1A (in words)” value (“Effect on oxygen consumption rate” below) in experiment [2] is “dramatically promoted”. Turning to `O=C(O)CC(=O)C(=O)O` [oxaloacetate], the “Effect on oxygen consumption rate” value in experiment [2] was “dramatically promoted”.

With `CCC(=O)O` [propanoic acid], in experiment [2], the “Effect on oxygen consumption rate” value is recorded as “no stimulation”.

On to `CC(=O)O` [acetic acid], for which, in experiment [2], the “Effect on oxygen consumption rate” value is reported as “no stimulation”.

Take `Nc1nc2c(ncn2[C@@H]2O[C@H](COP(=O)(O)OP(=O)(O)O)[C@@H](O)[C@H]2O)c(=O)[nH]1` [GDP]: the “Fold change” value in experiment [2] is reported as 1.4 fold. On the same count and under the same terms, next, `Nc1ncnc2c1ncn2[C@@H]1O[C@H](COP(=O)(O)OP(=O)(O)O)[C@@H](O)[C@H]1O` [ADP, adenosine diphosphate]: 1.4 fold. As for `CCCCCCCCOC(=O)c1cc(O)c(O)c(O)c1` [OG, octylgallate], the results for the IC50 in experiment [5] and in experiment [4] were 417 nM and 1580 nM, respectively.

In the case of `COc1c(O)c(C)c(CC=C(C)C)c(O)c1OC` [Q1H2, ubiquinol-1], the Michaelis constant (Km) in experiment [6] was determined as 451 µM; in experiment [3] (purified rAtAOX1A, without pyruvate, MOPS pH 7.5, read-out: Km for Q1H2, rAtAOX1A), 26 µM. For the compound `O=CC(=O)O` [glyoxylate], the “Fold change” value in experiment [2] is listed as “more than 7 fold”. Turning to `CC(/C=C/[C@@]1(C)[C@H](C)CCC(=O)[C@@H]1C)=C\Cc1c(O)c(Cl)c(C)c(C=O)c1O` [AC, ascochlorin], the half-maximal inhibitory concentration (IC50) in experiment [5] is 3.8 nM and 3.7 nM; in experiment [4] it was 14.7 nM. For `CC(C)=CCc1c(O)c(Cl)c(C)c(C=O)c1O` [CD, colletochlorin D], the IC50 is 3.73 nM and 3.8 nM in experiment [5]; 5.76 nM in experiment [4]. On to `CC(C)=CCC/C(C)=C/Cc1c(O)c(Cl)c(C)c(C=O)c1O` [CB, colletochlorin B], for which the IC50 in experiment [4] was 2.82 nM and 2.8 nM. Turning to `O=O` [O2, oxygen], the Km is 1150 nM in experiment [1] (membrane samples, 25°C, 1.25 mM NADH, without pyruvate, read-out: Km for O2, rTAO) and 2410 nM in experiment [2] (membrane samples, 25°C, 1.25 mM NADH, without pyruvate, read-out: Km for O2, rAtAOX1A).
